Test results as given in US8008346B2, “Chemotherapeutic agents for inhibition of protein translation” (The Royal University for the Advancement of Learning/McGill …, priority 2006, dated 2011).
Numbered stars: 1 amine (or outer) side, 2 acyl side, 3 side chain; on linkers, the order of the positions; unused ones are H or OH. Bridge positions count the residues as written; N and C are the ends. Square brackets hold non-standard residues; d marks the D form. Peptide text beside a SMILES is read from it. I, II: the chains in the order shown. Actinocin(9to1) = Cc1c2oc3c(C)ccc(C(=O)[*:1])c3nc-2c(C(=O)[*:2])c(N)c1=O; NMeV = CN[C@H](C(=O)O)C(C)C; Sar = CNCC(=O)O

How the values were obtained:
murine leukemia cells = settings: also in a number of human tumor xenografts; cited from earlier work
4E-BP = experiment: Western blot of 4E-BP and S6K phosphorylation status in MEFs stimulated with insulin (± rapamycin); type: cell-based, murine
Procedure: (§1) FIG. 14. (A) Western blot analysis of 4E-BP and S6K phosphorylation status in MEFs (murine embryo fibroblasts) stimulated with insulin (±rapamycin). Antibodies to pan-4E-BP and eIF4E antibodies were used. The phosphorylation status of 4E-BP is evident by a shift to a slower mobility species (shift from α to γ species). […] (B) Clofoctol inhibits protein synthesis in cells. MEF cells were incubated for 45 minutes in the presence of increasing amounts of clofoctol in methionine-free culture media. S^35-methionine was then added to the cell culture and incubation continued for 15 minutes. The amount of S^35-methionine incorporated into newly synthesized proteins was detected by TCA precipitation of the cell lysate following by scintillation counting. Results are expressed relative to the incorporation in the presence of 0.5% DMSO.

MEF cells = experiment: S35-methionine incorporation (protein synthesis) in MEF cells; type: cell-based, murine; settings: 45 min + 15 min labeling, relative to 0.5% DMSO
Procedure: as §1

[1] = tested on: Lymphomas derived from Eμ-myc, Eμ-myc×Tsc2(−/+), or Bcl2/Eμ-myc mice; experiment: Growth/cytotoxicity in lymphoma cell lines in culture; type: cell-based
Text: FIG. 15. Clofoctol Inhibits growth of tumor cell lines in culture. Lymphomas derived from Eμ-myc, Eμ-myc×Tsc2(−/+), or Bcl2/Eμ-myc mice were exposed to the indicated concentrations of Clofoctol and cytotoxicity monitored.

[2] = tested on: Akt-driven Eμ-myc lymphomas; experiment: Akt-driven Eμ-myc lymphoma model, combination with doxorubicin; type: in vivo, Mice; settings: hippurin-1 5 mg/kg every day for 5 days, doxorubicin 10 mg/kg once on day 2 of 5
Procedure: FIG. 13. Efficacy of hippurin-1 on Akt-driven Eμ-myc lymphomas when administered in combination with doxorubicin. Mice bearing Akt-driven Eμ-myc lymphomas where injected with either doxorubicin (10 mg/kg once on day 2 of 5), hippurin-1 alone (5 mg/kg every day for 5 days) or hippurin-1 and doxorubicin (hippurin-1: 5 mg/kg every day for 5 days, doxorubicin: 10 mg/kg once on day 2 of 5). Tumor size was monitored by (A) palpation (blinded study) and (B) blood smears on days 1, 3 and 5 during the treatment to assess the size of the lymphomas and the number of leukemic cells, respectively.

HeLa cells [3] = experiment: 3H-uridine incorporation (RNA synthesis) in HeLa cells; type: cell-based; settings: 50 μM, 60 min, normalized to DMSO, positive control, data not shown
Procedure: (§2) FIG. 4. Effect of hippuristanol on protein, RNA and DNA synthesis in cells. A. Relative rate of ^35S-methionine incorporation as a function of hippuristanol concentration in HeLa cells. Cells were exposed to the indicated concentration of compound for 50 min., followed by a 10 min. labeling period with ^35S-methionine in the presence of compound. The rate of protein synthesis (TCA precipitable cpm) obtained in the presence of compound was normalized to the rate obtained in the presence of DMSO (which was set at 1). The rate of protein synthesis in the control reactions (containing DMSO vehicle) averaged ˜700,000 cpm/10 min. labeling period. Results are shown for two experiments and the error of the mean is presented. The relative rate of ^35S-methionine incorporation in HeLa cells exposed to 10 μM anisomycin (positive control) for 60 min. was ˜0.02 (data not shown). B. Effect of hippuristanol on protein (gray circles), DNA (open squares), and RNA (solid squares) synthesis in HeLa cells. […] Gradients were analyzed by piercing the tube with a Brandel tube piercer, passing 60% sucrose through the bottom of the tube, and monitoring the absorbance of the material eluting from the tube using an ISCO UA-6 UV Detector.

HeLa cells [4] = experiment: 35S-methionine incorporation (protein synthesis) in HeLa cells; type: cell-based; settings: HeLa cells, 10 μM, 60 min; normalized to DMSO (set at 1); positive control, data not shown
Procedure: FIG. 4. Effect of hippuristanol on protein, RNA and DNA synthesis in cells. A. Relative rate of ^35S-methionine incorporation as a function of hippuristanol concentration in HeLa cells. Cells were exposed to the indicated concentration of compound for 50 min., followed by a 10 min. labeling period with ^35S-methionine in the presence of compound. The rate of protein synthesis (TCA precipitable cpm) obtained in the presence of compound was normalized to the rate obtained in the presence of DMSO (which was set at 1). The rate of protein synthesis in the control reactions (containing DMSO vehicle) averaged ˜700,000 cpm/10 min. labeling period. Results are shown for two experiments and the error of the mean is presented. The relative rate of ^35S-methionine incorporation in HeLa cells exposed to 10 μM anisomycin (positive control) for 60 min. was ˜0.02 (data not shown). B. Effect of hippuristanol on protein (gray circles), DNA (open squares), and RNA (solid squares) synthesis in HeLa cells. The rate of macromolecular synthesis (TCA precipitable cpm for a 10 min. labeling period) obtained in the presence of 1 μM hippuristanol was normalized to the rate obtained in the presence of DMSO and is plotted. The results are shown for two experiments and the error of the mean is presented. The rate of protein, RNA and DNA synthesis in the control reactions (containing DMSO vehicle) averaged ˜900,000 cpm/10 min, ˜16,000 cpm/10 min. and 7,000 cpm/10 min labeling, respectively. The relative rate of ^35S-methionine incorporation by HeLa cells exposed to 10 μM anisomycin for 60 min. (positive control for inhibition of protein synthesis) was 0.02 (data not shown). The relative rate of ^3H-uridine incorporation by HeLa cells exposed to 50 μM actinomycin (positive control for inhibition of RNA synthesis) for 60 min. was 0.01 (data not shown). C. […] Gradients were analyzed by piercing the tube with a Brandel tube piercer, passing 60% sucrose through the bottom of the tube, and monitoring the absorbance of the material eluting from the tube using an ISCO UA-6 UV Detector.

HeLa cell polyribosomes = experiment: HeLa cell polyribosome profile on sucrose gradients; type: cell-based; settings: 10 uM, 20 min
Procedure: as §2

human tumor stem cell = settings: in vitro; cited from earlier work

dehydrodidemnin 6
activity relative to didemnin B (murine leukemia cells): ten times more active

CC(C)(C)CC(C)(C)c1ccc(O)c(Cc2ccc(Cl)cc2Cl)c1 [Clofoctol]
phosphorylation status of 4E-BP (4E-BP; MEF cells, in the presence or absence of rapamycin): causes dephosphorylation of 4E-BP | S6 phosphorylation in the presence of rapamycin (4E-BP; MEFs, FIG. 14A lane 4 vs 3): antagonizes rapamycin's block of S6 phosphorylation | protein synthesis in cells (MEF cells): inhibits | growth of tumor cell lines in culture [1]: Inhibits

CC(=O)O[C@@H]1C[C@@]2(C)[C@@H](CC[C@@H]3[C@@H]2[C@@H](O)C[C@@]2(C)[C@H]3C[C@@H]3O[C@@]4(C[C@H](C)C(C)(C)O4)[C@](C)(O)[C@@H]32)C[C@@H]1O [hippurin-1]
adjuvant effect to doxorubicin in a mouse lymphoma model [2]: can act as adjuvant

Cc1c2oc3c(C)ccc(C(=O)N[C@@H]4C(=O)N[C@H](C(C)C)C(=O)N5CCC[C@H]5C(=O)N(C)CC(=O)N(C)[C@@H](C(C)C)C(=O)O[C@@H]4C)c3nc-2c(C(=O)N[C@@H]2C(=O)N[C@H](C(C)C)C(=O)N3CCC[C@H]3C(=O)N(C)CC(=O)N(C)[C@@H](C(C)C)C(=O)O[C@@H]2C)c(N)c1=O [actinomycin] (I: T[dV]P[Sar][NMeV] / II: T[dV]P[Sar][NMeV]; ester I:1-I:C, II:1-II:C; linker I:N-II:N via Actinocin(9to1))
relative rate of 3H-uridine incorporation (HeLa cells [3]): 0.01

COc1ccc(C[C@H]2NC[C@H](O)[C@H]2OC(C)=O)cc1 [anisomycin, reference compound]
relative rate of 35S-methionine incorporation (HeLa cells [4]): ~0.02 | effect on HeLa cell polyribosomes (HeLa cell polyribosomes): blocked elongation and caused an accumulation of ribosomes in polysomes

CC[C@H](C)[C@H]1NC(=O)[C@@H](NC(=O)[C@@H](CC(C)C)N(C)C(=O)[C@@H]2CCCN2C(=O)C(C)O)[C@@H](C)OC(=O)[C@H](Cc2ccc(OC)cc2)N(C)C(=O)[C@@H]2CCCN2C(=O)[C@H](CC(C)C)NC(=O)[C@@H](C)C(=O)[C@H](C(C)C)OC(=O)C[C@@H]1O (stereo partly shown) [Didemnin B]
concentrations inhibiting cell growth (human tumor stem cell): 1 to 100 nM
